Laboratory results from patent US20070004692A1, “Preparations and therapy of intrathecal inflammatory disease” (priority 2005, published 2007).
Values after ≈ are worked out from the molar mass of the structure shown. Marks after values point to notes of the source that are not given here.

Assays:
physchem = details: water
[1] = Physical stability of aqueous corticosteroid solutions (ethanol stock added to saline or x-ray contrast agent)
[2] = tested on: focal cerebral ischemia (middle cerebral artery occlusion); assay: Focal cerebral ischemia, intraluminal suture occlusion of the middle cerebral artery (MCAO); relative infarction volume by TTC staining; format: in vivo; details: for Relative infarction volume expressed as percent of the total brain volume of the right hemisphere, mean: 0.012 mg/kg intrathecal single dose (example 3), control 18.08, n 15
[3] = Solubility in water at room temperature
[4] = Blood glucose with glucose oxidase reagent strips in the MCAO animals of Example 5; details: intrathecal 0.012 mg/kg; venous blood preoperatively, prior to, 2 h and 24 h after administration; versus saline control (FIG. 1)
Procedure: In the animals used in ‘Example 5’ additionally blood glucose was measured with glucose oxidase reagent strips (Accu-Chek® Sensor, Roche Diagnostik GmbH, Mannheim, Germany) using a drop of venous blood preoperatively, immediately prior to, at 2 hours and at 24 hours after Triamcinolone acetonide administration.

[5] = Isovist 300, time after mixing 0

SMILES | solubility (physchem) [µg/mL] | Physical stability (appearance) ([1]; Isovist 300, 2 h after mixing) | Physical stability (appearance) ([1]; Isovist 300, 48 h after mixing) | Physical stability (appearance) [1, 5] | Physical stability (appearance) ([1]; Saline, 2 h after mixing) | Physical stability (appearance) ([1]; Saline, time after mixing 0) | Physical stability (appearance) ([1]; Ultravist 300, 2 h after mixing) | Physical stability (appearance) ([1]; Ultravist 300, 48 h after mixing) | Physical stability (appearance) ([1]; Ultravist 300, time after mixing 0) | Relative infarction volume expressed as percent of the total brain volume of the right hemisphere, mean ([2]; drug administration 30 Min after MCAO) | Relative infarction volume expressed as percent of the total brain volume of the right hemisphere, mean ([2]; drug administration 1 h after MCAO) | Relative infarction volume expressed as percent of the total brain volume of the right hemisphere, mean ([2]; drug administration 2 h after MCAO) | Relative infarction volume expressed as percent of the total brain volume of the right hemisphere, mean ([2]; drug administration 4 h after MCAO) | reduction in infarction size compared to controls ([2]; 0.012 mg/kg intrathecally, preparation of example 2, 30 minutes after MCA occlusion) [%] | infarction volume (percent of the total brain volume of the right hemisphere) ([2]; 0.012 mg/kg intrathecally, preparation of example 2, 30 minutes after MCA occlusion, sacrificed 24 h after MCAO, controls 20.0±8.0%, p=0.02) [%] | solubility [3] [µg/mL] | effect on blood glucose [4] | Physical stability (appearance) ([1]; Ultravist 370, 2 h after mixing) | Physical stability (appearance) ([1]; Ultravist 370, 48 h after mixing) | Physical stability (appearance) ([1]; Ultravist 370, time after mixing 0)
C[C@@H]1C[C@H]2[C@@H]3CCC4=CC(=O)C=C[C@]4(C)[C@@]3(F)[C@@H](O)C[C@]2(C)[C@@]1(O)C(=O)CO [Dexamethasone, dexamethasone] | ~85 (≈ 217 µM) | clear | clear | clear | clear | clear | clear | clear | clear | – | – | – | – | – | – | – | – | – | – | –
CC1(C)O[C@@H]2C[C@H]3[C@@H]4CCC5=CC(=O)C=C[C@]5(C)[C@@]4(F)[C@@H](O)C[C@]3(C)[C@]2(C(=O)CO)O1 [Triamcinolone acetonide] | – | clear | fine particles | clear | – | clear (?) | – | – | – | 12.86* percent | 9.68** percent | 10.57* percent | 9.05** percent | 33 | 13.4±6.5 | ~20 (≈ 46 µM) | does not cause any additional effect | clear | clear | clear
